From patent publication US8273738B2, “Imidazole derivatives” (priority 2006, dated 2012)
Like-named read-outs stand apart in the source and are kept apart here.

Columns and labels:
[1] = system: rats with chronic constriction nerve injury; assay: Analgesic effect in rats with chronic constriction nerve injury (von Frey filament); type: in vivo, rat; conditions: oral, dose of 50 mg/kg or less, one hour after administration, von Frey filaments
Text: Rats with chronic constriction nerve injury were produced by partially modifying the method of Mosconi and Kruger et al. (Pain, vol. 64, pp. 37-57 (1996))
Male Crl:CD(SD) rats were used for the experiments. Under pentobarbital anesthesia, the sciatic nerve of the left hind limb of the rat was exfoliated, and the exfoliated region was wrapped with a polyethylene tube (trade name: Intramedic, size: PE-60, manufactured by Becton Dickinson and Company) of 2 mm in length. On days 14 to 21 after the surgery, the rats were placed in an acrylic connected cage with a wire mesh floor (900 mm (length)×210 mm (depth)×140 mm (height)) consisting of 4 cages connected in a row and allowed to acclimate to the environment for at least 20 minutes, and then, the pain was evaluated.
The von Frey filament (trade name: touch test sensory evaluator, Model number: model 58011, manufactured by Muromachi Kikai) was used to evaluate pain, and the results were calculated as a pain threshold. That is, by using a von Frey filament of different stimulus intensity, stimulation was given to the plantar surface of the injured side of rats with chronic constriction nerve injury, and the stimulus intensity to cause paw withdrawal response was obtained. Then, the 50% pain threshold (Paw withdrawal threshold) (g) was calculated by the up down method of Dixon [Annual Review of Pharmacology and Toxicology, vol. 20, pp. 441-462 (1980)].
In the evaluation of the test compound, rats with 50% pain threshold of less than 4 g were used, and the test compound was dissolved in a 0.5% aqueous methyl cellulose solution and orally administered at a dose of 5 mL/kg. One hour after the administration, the pain threshold was measured using von Frey filaments.

[2] = molecular target: T1, human CB2 receptor (Homo sapiens, UniProt P34972); assay: GTPγS binding experiment via human CB2 receptor (membrane fraction of CHO-K1 cells); type: biochemical; conditions: for Emax: read-out: Emax value (maximum effect of CP55940 as 100%)
T1 construct: expressed in transfected cells
T1 sequence (P34972 whole entry): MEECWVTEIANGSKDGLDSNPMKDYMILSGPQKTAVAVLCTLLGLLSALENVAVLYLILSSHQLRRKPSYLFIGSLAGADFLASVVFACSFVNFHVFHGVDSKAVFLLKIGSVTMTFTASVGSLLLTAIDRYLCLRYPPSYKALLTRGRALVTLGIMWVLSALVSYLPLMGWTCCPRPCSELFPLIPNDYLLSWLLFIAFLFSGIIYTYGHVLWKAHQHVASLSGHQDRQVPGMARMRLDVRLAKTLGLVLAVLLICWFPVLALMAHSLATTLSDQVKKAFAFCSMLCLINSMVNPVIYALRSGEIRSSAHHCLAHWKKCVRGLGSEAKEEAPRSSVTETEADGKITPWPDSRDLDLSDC
Method: A test was carried out according to the method of Hillard et al. [The Journal of Pharmacology and Experimental Therapeutics, vol. 289, p. 1427 (1999)]. As for a membrane specimen, a membrane fraction was prepared from CHO-K1 cells in which a human CB2 receptor [Nature, vol. 365, pp. 61-65 (1993)] was stably expressed and used. The membrane specimen (final concentration: 40 μg of protein/mL) was incubated together with a test compound and [^35S]GTPγS (manufactured by PerkinElmer) (final concentration: 0.05 nmol/L) in an assay buffer (50 mmol/L Tris-HCl buffer (pH 7.4), 100 mmol/L NaCl, 1 mmol/L EDTA, 3 mmol/L MgCl2, and 0.1% bovine serum albumin) containing 20 μmol/L guanosine 5′-diphosphate (GDP) at 30° C. for 1 hour, and the resulting mixture was filtered using a glass filter GF/B (manufactured by Whatman). After the glass filter was washed with the assay buffer, the radioactivity on the glass filter was measured using a liquid scintillation counter (TRI-CARB 2700TR, manufactured by Packard). The binding amount in the presence of 10 μmol/L GTPγS was considered to be a non-specific binding amount, and a difference between the total binding amount and the non-specific binding amount was considered to be a specific binding amount. The ratio of increase in the specific binding amount in the presence of the test compound to the specific binding amount in the absence of the test compound was considered to be an agonistic activity of the test compound. The concentration of the test compound that produces 50% of the maximum effect (EC50 value) was calculated by performing a nonlinear regression analysis using the concentration-response data. The percentage of the maximum effect of the test compound (Emax value) was calculated by considering the maximum effect of CP55940 (manufactured by Tocris) measured at the same time as 100%.

[3] = molecular target: T2, CB2 receptor (Rattus norvegicus, UniProt Q9QZN9); assay: Cannabinoid CB2 receptor-binding activity ([3H]CP55940 binding experiment), rat spleen membrane specimen
T2 construct: from tissue; host or cells: rat spleen membrane specimen
T2 sequence (Q9QZN9 1-360): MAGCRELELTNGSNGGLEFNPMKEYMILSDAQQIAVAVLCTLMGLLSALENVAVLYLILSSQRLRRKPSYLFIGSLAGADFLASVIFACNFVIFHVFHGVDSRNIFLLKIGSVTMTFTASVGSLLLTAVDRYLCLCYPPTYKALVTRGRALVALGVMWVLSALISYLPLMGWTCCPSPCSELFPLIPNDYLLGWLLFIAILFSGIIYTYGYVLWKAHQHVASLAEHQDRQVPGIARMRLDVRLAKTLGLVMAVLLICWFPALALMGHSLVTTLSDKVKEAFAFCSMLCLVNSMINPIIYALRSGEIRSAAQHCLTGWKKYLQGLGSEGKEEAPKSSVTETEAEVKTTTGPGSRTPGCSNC
Method: A test was carried out according to the method of Hillard et al. [The Journal of Pharmacology and Experimental Therapeutics, vol. 289, p. 1427 (1999)]. A rat forebrain membrane specimen and a rat spleen membrane specimen were prepared and used in a binding experiment for a CB1 receptor and a binding experiment for a CB2 receptor, respectively. The membrane specimen (forebrain: final concentration of 0.5 mg of protein/mL, spleen: final concentration of 2 mg of protein/mL) was incubated together with a test compound and [^3H]CP55940 (manufactured by PerkinElmer) ((−)-cis-3-[2-hydroxy-[3,5-^3H]-4-(1,1-dimethylheptyl)phenyl]-trans-4-(3-hydroxypropyl)cyclohexanol)) (final concentration: 0.5 nmol/L) in an assay buffer (50 mmol/L Tris-HCl buffer (pH 7.4), 1 mmol/L EDTA and 3 mmol/L MgCl2) containing 0.1% bovine serum albumin at 25° C. for 1 hour, and the resulting mixture was filtered using a glass filter GF/C (manufactured by Whatman) treated with 1% polyethyleneimine. After the glass filter was washed with the assay buffer containing 0.2% bovine serum albumin, the radioactivity on the glass filter was measured using a liquid scintillation counter (TRI-CARB 2700TR, manufactured by Packard). The binding amount in the presence of 10 μmol/L […] (manufactured by Tocris) ((R)-(+)-[2,3-dihydro-5-methyl-3-(4-morpholinylmethyl)pyrrolo[1,2,3-de]-1,4-benzoxazin-6-yl]-1-naphthalenylmethanone) was considered to be a non-specific binding amount, and a difference between the total binding amount and the non-specific binding amount was considered to be a specific binding amount. The 50% inhibitory concentration (IC50 value) of the test compound against the specific binding was obtained, and the Ki value of the test substance was calculated from the 50% inhibitory concentration and the Kd value of the [^3H]CP55940 binding.

**Q.** With CCN(CC)C(=O)c1cc(-c2cn(CC3CCOCC3)c(C(C)(C)C)n2)ccc1Cl [Compound 65, 2-Chloro-5-(2-tert-butyl-1-(tetrahydropyran-4-ylmethyl)-1H-imidazol-4-yl)-N,N-diethylbenzamide] as the molecule, how does the “50% pain threshold (paw withdrawal threshold)” value (“50% pain threshold” below) [1] read?
**A.** significantly increased the pain threshold

**Q.** What about the EC50 [2] of the same molecule?
**A.** < 1 µM

**Q.** What about the Emax [2] of the same molecule?
**A.** > 30%

**Q.** What about the Ki [3] of the same molecule?
**A.** < 1 µM

**Q.** What does the source list for CCN(CC)C(=O)c1cc(-c2cn(CC3CCOCC3)c(C(C)(C)C)n2)ccc1F.Cl [Compound 66, 5-(2-tert-Butyl-1-(tetrahydropyran-4-ylmethyl)-1H-imidazol-4-yl)-N,N-diethyl-2-fluorobenzamide hydrochloride]?
**A.** 50% pain threshold (paw withdrawal threshold) [1]: significantly increased the pain threshold; EC50 [2]: < 1 µM; Emax [2]: > 30%; Ki [3]: < 1 µM

**Q.** CC(C)(C)c1nc(-c2cccc([N+](=O)[O-])c2)cn1CC1CCOCC1 [Compound 70, 2-tert-Butyl-4-(3-nitrophenyl)-1-(tetrahydropyran-4-ylmethyl)-1H-imidazole] was tested. Which “50% pain threshold” value [1] did it give?
**A.** significantly increased the pain threshold

**Q.** And the EC50 [2]?
**A.** < 1 µM

**Q.** And the Emax [2]?
**A.** > 30%

**Q.** What about the Ki [3] of the same molecule?
**A.** < 1 µM

**Q.** How did the “50% pain threshold” value [1] turn out when CCN(CC)C(=O)c1cccc(-c2cn(CC3CCOCC3)c(C(C)(C)C)n2)c1.Cl [Compound 76, 3-(2-tert-Butyl-1-(tetrahydropyran-4-ylmethyl)-1H-imidazol-4-yl)-N,N-diethylbenzamide hydrochloride] was run?
**A.** significantly increased the pain threshold

**Q.** And the EC50 [2]?
**A.** < 1 µM

**Q.** What about the Emax [2] of the same molecule?
**A.** > 30%

**Q.** What about the Ki [3] of the same molecule?
**A.** < 1 µM

**Q.** For CCN(C)C(=O)c1cccc(-c2cn(CC3CCOCC3)c(C(C)(C)C)n2)c1.Cl [Compound 83, 3-(2-tert-Butyl-1-(tetrahydropyran-4-ylmethyl)-1H-imidazol-4-yl)-N-ethyl-N-methylbenzamide hydrochloride], which “50% pain threshold” value [1] is on record?
**A.** significantly increased the pain threshold

**Q.** What about the EC50 [2] of the same molecule?
**A.** < 1 µM

**Q.** And the Emax [2]?
**A.** > 30%

**Q.** And the Ki [3]?
**A.** < 1 µM

**Q.** What does the source list for CCN(CC)C(=O)c1cncc(-c2cn(CC3CCOCC3)c(C(C)(C)C)n2)c1 [Compound 85, 5-(2-tert-Butyl-1-(tetrahydropyran-4-ylmethyl)-1H-imidazol-4-yl)-N,N-diethylnicotinamide]?
**A.** 50% pain threshold (paw withdrawal threshold) [1]: significantly increased the pain threshold; EC50 [2]: < 1 µM; Emax [2]: > 30%; Ki [3]: < 1 µM

**Q.** Which results are given for CCN(C)C(=O)c1cc(-c2cn(CC3CCOCC3)c(C(C)(C)C)n2)cs1 [Compound 102, 4-[2-tert-Butyl-1-(tetrahydropyran-4-ylmethyl)-1H-imidazol-4-yl]-N-ethyl-N-methylthiophene-2-carboxamide]?
**A.** 50% pain threshold (paw withdrawal threshold) [1]: significantly increased the pain threshold; EC50 [2]: < 1 µM; Emax [2]: > 30%; Ki [3]: < 1 µM

**Q.** How did the “50% pain threshold” value [1] turn out when CCN(CC)C(=O)c1cncc(-c2cn(CC3CCOCC3)c(C(C)(C)C)n2)n1 [Compound 143, 6-[2-tert-Butyl-1-(tetrahydropyran-4-ylmethyl)-1H-imidazol-4-yl]-N,N-diethylpyrazine-2-carboxamide] was run?
**A.** significantly increased the pain threshold

**Q.** What about the EC50 [2] of the same molecule?
**A.** < 1 µM

**Q.** And the Emax [2]?
**A.** > 30%

**Q.** And the Ki ([3]; rat spleen membrane, [3H]CP55940 0.5 nmol/L, 25° C., 1 hour, read-out: Ki value against the CB2 receptor)?
**A.** < 1 µM

**Q.** Which results are given for CCCN(C)C(=O)c1cncc(-c2cn(CC3CCOCC3)c(C(C)(C)C)n2)n1 [Compound 144, 6-[2-tert-Butyl-1-(tetrahydropyran-4-ylmethyl)-1H-imidazol-4-yl]-N-methyl-N-propylpyrazine-2-carboxamide]?
**A.** 50% pain threshold (paw withdrawal threshold) [1]: significantly increased the pain threshold; EC50 [2]: < 1 µM; Emax [2]: > 30%; Ki [3]: < 1 µM

**Q.** Which results are given for CCN(C)C(=O)c1cncc(-c2cn(CC3CCOCC3)c(C(C)(C)C)n2)n1 [Compound 146, 6-[2-tert-Butyl-1-(tetrahydropyran-4-ylmethyl)-1H-imidazol-4-yl]-N-ethyl-N-methylpyrazine-2-carboxamide]?
**A.** 50% pain threshold (paw withdrawal threshold) [1]: significantly increased the pain threshold; EC50 [2]: < 1 µM; Emax [2]: > 30%; Ki [3]: < 1 µM

**Q.** Which results are given for CN(C)C(=O)c1cncc(-c2cn(CC3CCOCC3)c(C(C)(C)C)n2)n1 [Compound 153, 6-[2-tert-Butyl-1-(tetrahydropyran-4-ylmethyl)-1H-imidazol-4-yl]-N,N-dimethylpyrazine-2-carboxamide]?
**A.** 50% pain threshold (paw withdrawal threshold) [1]: significantly increased the pain threshold; EC50 [2]: < 1 µM; Emax [2]: > 30%; Ki [3]: < 1 µM

**Q.** Which results are given for CCN(C)C(=O)c1cncc(-c2cn(CC3(F)CCOCC3)c(C(C)(C)C)n2)n1 [Compound 185, 6-[2-tert-Butyl-1-(4-fluorotetrahydropyran-4-ylmethyl)-1H-imidazol-4-yl]-N-ethyl-N-methylpyrazine-2-carboxamide]?
**A.** 50% pain threshold (paw withdrawal threshold) [1]: significantly increased the pain threshold; EC50 [2]: < 1 µM; Emax [2]: > 30%; Ki [3]: < 1 µM

**Q.** What does the source list for CN(C)C(=O)c1cncc(-c2cn(CC3(F)CCOCC3)c(C(C)(C)C)n2)n1 [Compound 186, 6-[2-tert-Butyl-1-(4-fluorotetrahydropyran-4-ylmethyl)-1H-imidazol-4-yl]-N,N-dimethylpyrazine-2-carboxamide]?
**A.** 50% pain threshold (paw withdrawal threshold) [1]: significantly increased the pain threshold; EC50 [2]: < 1 µM; Emax [2]: > 30%; Ki [3]: < 1 µM

**Q.** Which results are given for CN(CC(F)(F)F)C(=O)c1cc(-c2cn(CC3CCOCC3)c(C(C)(C)C)n2)on1 [Compound 204, 5-[2-tert-Butyl-1-(tetrahydropyran-4-ylmethyl)-1H-imidazol-4-yl]-N-methyl-N-(2,2,2-trifluoroethyl)isoxazole-3-carboxamide]?
**A.** 50% pain threshold (paw withdrawal threshold) [1]: significantly increased the pain threshold; EC50 [2]: < 1 µM; Emax [2]: > 30%; Ki [3]: < 1 µM
